The values below are quoted from earlier work in patent US6811840B1, “Decorative transfer process” (Stahls' Inc., priority 1996, dated 2004).

With `CC1(C)Nc2cccc3c(N=Nc4ccc(N=Nc5ccccc5)c5ccccc45)ccc(c23)N1` [Sudan Black X60], the “solubility in water (in words)” value is given as “insoluble in water”.

For the compound `CCCCCNc1ccc(NCCCCC)c2c1C(=O)c1ccccc1C2=O` [Oil Blue N], the “solubility in water (in words)” value is given as “insoluble in water”.

With `Oc1ccc2ccccc2c1N=Nc1ccccc1` [Sudan Orange 220], the “solubility in water (in words)” value is on record as “insoluble in water”.

As to `Cc1ccccc1/N=N/c1ccc(/N=N/c2c(O)ccc3ccccc23)c(C)c1` [Oil Red 234], the “solubility in water (in words)” value is given as “insoluble in water”.

Consider `CCCCNc1ccc(NCCCC)c2c1C(=O)c1ccccc1C2=O` [Sudan Blue 670], for which the solubility in water result (at 20° C.) is given as “less than 1 gram of dye per liter of water”.
